Test results: patent publication US8865683B2, “Active compound combinations having insecticidal properties” (priority 2003, dated 2014)

Tested on: green peach aphid (Myzus persicae)
Experiment: Myzus persicae test (cabbage leaf dip)
Format: in vivo
Details: cabbage leaves (Brassica oleracea) dipped
Description: The expected action for a given combination of two active compounds can be calculated according to S. R. Colby, Weed, 15 (1967), 20-22): […]
If • X is the kill rate, expressed as a percentage of the untreated control, when employing active compound A at an application rate of m g/ha or in a concentration of m ppm, • Y is the kill rate, expressed as a percentage of the untreated control, when employing active compound B at an application rate of n g/ha or in a concentration of n ppm and • E is the kill rate, expressed as a percentage of the untreated control, when employing active compounds A and B at application rates of m and n g/ha or in a concentration of m and n ppm, then
If the actual insecticidal kill rate exceeds the calculated value, the action of the combination is superadditive, i.e. a synergistic effect is present. In this case, the actually observed kill rate must exceed the value calculated using the above formula for the expected kill rate (E).
After the desired period of time, the kill in % is determined. 100% means that all animals have been killed; 0% means that none of the animals have been killed. […]
After the desired period of time, the kill in % is determined. […] The determined kill ratios are entered into Colby's formula (see page 42).

Row | Compound | Kill rate in % after 1d, found (4 ppm active compound) [%] | Kill rate in % after 1d, found (0.8 ppm active compound) [%]
1 | Cc1cc(Cl)cc(C(=O)NC(C)C)c1NC(=O)c1cc(C(F)(F)F)nn1-c1ncccc1Cl [(I-1-9)] | 0 | 
2 | CCOP(=S)(OCC)Oc1nc(Cl)c(Cl)cc1Cl [(2-2) chlorpyrifos, chlorpyrifos] |  | 65
